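Results reflect a 48-hour exposure of cells in 96-well plates to compound at five concentrations. GI50 is the concentration that inhibits growth by half.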 The source made the active and inactive calls. Rule as the data show it: active = GI50 up to about 1.1 µM and inactive = higher.
Columns and labels:
Assay in all cases: DTP human tumour cell line panel, 48 h
PC-3 = system: PC-3
OVCAR-8 = system: OVCAR-8
ACHN = system: ACHN
SF-539 = system: SF-539
HOP-62 = system: HOP-62
HOP-92 = system: HOP-92
T47D = system: T47D
NCI/ADR-RES = system: NCI/ADR-RES
M14 = system: M14
SK-MEL-28 = system: SK-MEL-28
SK-OV-3 = system: SK-OV-3
MOLT-4 = system: MOLT-4
HL-60 = system: HL-60
SF-268 = system: SF-268
NCI-H23 = system: NCI-H23
CCRF-CEM = system: CCRF-CEM
SK-MEL-5 = system: SK-MEL-5
OVCAR-3 = system: OVCAR-3
NCI-H522 = system: NCI-H522
DU-145 = system: DU-145

SMILES | GI50 (PC-3) | GI50 (OVCAR-8) | GI50 (ACHN) | GI50 (SF-539) | GI50 (HOP-62) | GI50 (HOP-92) | GI50 (T47D) | GI50 (NCI/ADR-RES) | GI50 (M14) | GI50 (SK-MEL-28) | GI50 (SK-OV-3) | GI50 (MOLT-4) | GI50 (HL-60) | GI50 (SF-268) | GI50 (NCI-H23) | GI50 (CCRF-CEM) | GI50 (SK-MEL-5) | GI50 (OVCAR-3) | GI50 (NCI-H522) | GI50 (DU-145)
Cc1ccc(-c2n[nH]c(=O)n2/N=C\c2ccc([N+](=O)[O-])cc2)cc1 | > 100 µM (inactive) | > 100 µM (inactive) | > 80.5 µM (inactive) | > 100 µM (inactive) | 52.4 µM (inactive) | > 74.3 µM (inactive) | > 91.8 µM (inactive) | > 100 µM (inactive) | 58.2 µM (inactive) | > 100 µM (inactive) | > 100 µM (inactive) | > 42.2 µM (inactive) | > 35.7 µM (inactive) | > 100 µM (inactive) | > 100 µM (inactive) | > 32.1 µM (inactive) | 92.9 µM (inactive) | > 100 µM (inactive) | > 100 µM (inactive) | > 100 µM (inactive)
CO/N=[N+](\[O-])NC(C)C | > 100 µM (inactive) | > 100 µM (inactive) | > 100 µM (inactive) | > 100 µM (inactive) | > 100 µM (inactive) | > 100 µM (inactive) | > 100 µM (inactive) | > 100 µM (inactive) | > 100 µM (inactive) | > 100 µM (inactive) | > 100 µM (inactive) | > 100 µM (inactive) | > 100 µM (inactive) | > 100 µM (inactive) | > 100 µM (inactive) | > 100 µM (inactive) | > 100 µM (inactive) | > 100 µM (inactive) | > 100 µM (inactive) | > 100 µM (inactive)
Cc1ccc(NC(=O)CC(=O)N2N=C(N(c3ccccc3)c3ccccc3)CC2c2ccccc2)cc1 (centres undefined) | 85.7 µM (inactive) | > 100 µM (inactive) | > 100 µM (inactive) | > 100 µM (inactive) | > 100 µM (inactive) | > 100 µM (inactive) | > 100 µM (inactive) | > 100 µM (inactive) | > 100 µM (inactive) | > 100 µM (inactive) | > 100 µM (inactive) | > 100 µM (inactive) | > 100 µM (inactive) | 75.7 µM (inactive) | > 100 µM (inactive) | > 100 µM (inactive) | > 100 µM (inactive) | > 100 µM (inactive) | > 100 µM (inactive) | > 100 µM (inactive)
CC(C)=Cc1cc(C)c2c(O)cc(C)c3c2c1C(C)=C(O)C3=O | 32.8 µM (inactive) | 38.1 µM (inactive) | 25.5 µM (inactive) | 28.1 µM (inactive) | 20.7 µM (inactive) | 7.85 µM (inactive) | 21.2 µM (inactive) | 30.1 µM (inactive) | 22.4 µM (inactive) | – | 28.9 µM (inactive) | 25.8 µM (inactive) | 29.9 µM (inactive) | 21.1 µM (inactive) | 23.4 µM (inactive) | < 0.01 µM (active) | 17.1 µM (inactive) | 20.6 µM (inactive) | 18.3 µM (inactive) | 28.7 µM (inactive)
CC(=O)O[C@H]1C[C@@H](O[C@H]2[C@@H](O)C[C@H](O[C@H]3[C@@H](O)C[C@H](O[C@H]4CC[C@@]5(C)[C@H](CC[C@@H]6[C@@H]5C[C@@H](O)[C@]5(C)[C@@H](C7=CC(=O)OC7)CC[C@]65O)C4)O[C@@H]3C)O[C@@H]2C)O[C@H](C)[C@H]1O.CC(=O)O[C@H]1[C@@H](O)C[C@@H](O[C@H]2[C@@H](O)C[C@H](O[C@H]3[C@@H](O)C[C@H](O[C@H]4CC[C@@]5(C)[C@H](CC[C@@H]6[C@@H]5C[C@@H](O)[C@]5(C)[C@@H](C7=CC(=O)OC7)CC[C@]65O)C4)O[C@@H]3C)O[C@@H]2C)O[C@@H]1C | 0.0322 µM (active) | 0.0378 µM (active) | 0.0136 µM (active) | 0.0315 µM (active) | 0.0336 µM (active) | 0.0561 µM (active) | 0.0455 µM (active) | 0.0238 µM (active) | 0.0637 µM (active) | 0.129 µM (active) | 0.0385 µM (active) | 0.0167 µM (active) | 0.0382 µM (active) | 0.0236 µM (active) | 0.0114 µM (active) | 0.617 µM (active) | 0.0296 µM (active) | 0.0119 µM (active) | < 0.01 µM (active) | 0.0192 µM (active)
O=C(O)c1cc(=O)c2c(OCC(O)COc3cccc4oc(C(=O)O)cc(=O)c34)cccc2o1 | > 100 µM (inactive) | 99.5 µM (inactive) | > 100 µM (inactive) | 98.2 µM (inactive) | > 91.2 µM (inactive) | > 63.8 µM (inactive) | > 100 µM (inactive) | > 100 µM (inactive) | > 88.1 µM (inactive) | > 100 µM (inactive) | > 72.9 µM (inactive) | > 87.7 µM (inactive) | > 100 µM (inactive) | > 100 µM (inactive) | > 84.3 µM (inactive) | > 71 µM (inactive) | > 65.9 µM (inactive) | > 100 µM (inactive) | > 56.8 µM (inactive) | > 100 µM (inactive)
C=C1CC[C@@H]2C13[C@@H]1[C@H](CC(=O)[C@@]23C)C1(C)C (some centres undefined) | > 100 µM (inactive) | 35.9 µM (inactive) | > 100 µM (inactive) | 67.1 µM (inactive) | 24 µM (inactive) | > 100 µM (inactive) | 55.8 µM (inactive) | > 100 µM (inactive) | > 100 µM (inactive) | > 100 µM (inactive) | > 100 µM (inactive) | > 100 µM (inactive) | > 100 µM (inactive) | > 100 µM (inactive) | > 100 µM (inactive) | – | > 100 µM (inactive) | 21.6 µM (inactive) | > 100 µM (inactive) | > 100 µM (inactive)
CN1CCN(CCCCN2c3ccccc3Sc3ccc(C(=O)c4ccccc4)cc32)CC1 | 1.5 µM (inactive) | 1.5 µM (inactive) | 1.67 µM (inactive) | 1.83 µM (inactive) | 1.6 µM (inactive) | 1.82 µM (inactive) | 5.65 µM (inactive) | 1.86 µM (inactive) | 1.82 µM (inactive) | 1.49 µM (inactive) | 1.57 µM (inactive) | 1.71 µM (inactive) | 1.57 µM (inactive) | 2.23 µM (inactive) | 1.85 µM (inactive) | 1.64 µM (inactive) | 1.54 µM (inactive) | 1.66 µM (inactive) | 1.78 µM (inactive) | 2.29 µM (inactive)
Cc1nn(C(=O)c2ccncc2)c2c1C(c1ccccc1)SC(=N)N2 (centres undefined) | > 10 µM (inactive) | > 10 µM (inactive) | > 10 µM (inactive) | > 10 µM (inactive) | > 10 µM (inactive) | > 10 µM (inactive) | > 10 µM (inactive) | > 10 µM (inactive) | > 10 µM (inactive) | > 10 µM (inactive) | > 10 µM (inactive) | > 10 µM (inactive) | > 10 µM (inactive) | > 10 µM (inactive) | > 10 µM (inactive) | > 10 µM (inactive) | > 10 µM (inactive) | > 10 µM (inactive) | > 10 µM (inactive) | > 10 µM (inactive)
C/C=C1/CN2CCC34c5ccccc5N(C)C23C2CC1C4(C(=O)OC)C(O)O2 (centres undefined) | > 100 µM (inactive) | > 100 µM (inactive) | > 100 µM (inactive) | > 100 µM (inactive) | > 100 µM (inactive) | > 100 µM (inactive) | > 100 µM (inactive) | > 100 µM (inactive) | > 100 µM (inactive) | > 100 µM (inactive) | > 100 µM (inactive) | > 100 µM (inactive) | > 100 µM (inactive) | > 100 µM (inactive) | > 100 µM (inactive) | > 100 µM (inactive) | > 100 µM (inactive) | > 100 µM (inactive) | > 100 µM (inactive) | > 100 µM (inactive)
Cc1cccc(C)c1Nc1nc(C)c(C(=O)CC(=O)C(=O)Nc2c(C(C)C)cccc2C(C)C)s1 | 78.3 µM (inactive) | > 100 µM (inactive) | > 100 µM (inactive) | > 100 µM (inactive) | > 100 µM (inactive) | 43.4 µM (inactive) | > 100 µM (inactive) | 73.8 µM (inactive) | > 100 µM (inactive) | > 100 µM (inactive) | 89.7 µM (inactive) | 72.9 µM (inactive) | 24.7 µM (inactive) | > 100 µM (inactive) | > 100 µM (inactive) | – | > 100 µM (inactive) | 72.6 µM (inactive) | > 100 µM (inactive) | > 100 µM (inactive)
CCOc1ccc(/N=N/C2C(=O)N(C(=O)CC(=O)Nc3ccccc3)N=C2C)cc1 (centres undefined) | > 100 µM (inactive) | > 100 µM (inactive) | > 100 µM (inactive) | 35.2 µM (inactive) | 59.3 µM (inactive) | 28.5 µM (inactive) | 30.8 µM (inactive) | 75.7 µM (inactive) | 58.1 µM (inactive) | 48.5 µM (inactive) | – | 36.5 µM (inactive) | 33.8 µM (inactive) | 61.8 µM (inactive) | 78.3 µM (inactive) | > 100 µM (inactive) | 42.8 µM (inactive) | 53.8 µM (inactive) | 83.9 µM (inactive) | > 100 µM (inactive)
Clc1nc(Nc2nc3ccccc3[nH]2)nc(Cl)c1-c1ccccc1 | 23 µM (inactive) | 27.7 µM (inactive) | 15.8 µM (inactive) | 18.1 µM (inactive) | – | 8.65 µM (inactive) | 40.7 µM (inactive) | 27.7 µM (inactive) | 35.1 µM (inactive) | 11.7 µM (inactive) | 22.1 µM (inactive) | 76 µM (inactive) | 36.1 µM (inactive) | 33 µM (inactive) | 17.3 µM (inactive) | 19.5 µM (inactive) | 20.9 µM (inactive) | – | 17.3 µM (inactive) | 74.3 µM (inactive)
